Data on 1 compound can be found in US8501950B2, “N-cyanoalkylanthranilamides as insecticides” (Syngenta Crop Protection LLC, priority 2006, dated 2013).

Molecules are shown by their SMILES. Where only a bound is given, the exact number is not on record here.

Holding throughout (format): in vivo
Experiment [1] has as its system Tetranychus urticae (Two-Spotted Spider Mite). Nature of the experiment: Example B8: activity against Tetranychus urticae, bean leaf discs. The text has this: Activity Against Tetranychus urticae (Two-Spotted Spider Mite)
Bean leaf discs on agar in 24-well microtiter plates are sprayed with test solutions. After drying, the leaf discs are infested with mite populations of mixed ages. 8 days later, discs are checked for egg mortality, larval mortality, and adult mortality.

Experiment [2] concerns Spodoptera littoralis (Cotton Leafworm). The experiment in a line: Example B9: systemic insecticide test for Spodoptera littoralis, maize seedlings at 12.5 ppm. On the procedure: Systemic Insecticide Test for Spodoptera littoralis (Cotton Leafworm)
[…] Seedlings are allowed to grow for six days. Subsequently leaves are cut and placed in a Petri dish (5 cm diameter), inoculated with twelve to fifteen 1st instar S. littoralis larvae and incubated for four days in a growth chamber (25° C., 50% r.h., 18:6 L:D photo period). Number of alive insects are counted and percentage of dead calculated. Tests were conducted with one replicate.

The subject of experiment [3] is Heliothis virescens (Tobacco Budworm). The experiment in a line: Example B2: activity against Heliothis virescens, eggs on artificial diet. The conditions noted are these: 96 h. Here is the method: Activity Against Heliothis virescens (Tobacco Budworm)
Eggs (0-24 h old) are placed in 24-well microtiter plate on artificial diet and sprayed with test solutions. After an incubation period of 4 days, samples are checked for egg mortality, larval mortality, and growth inhibition.

The test system of experiment [4] is Cydia pomonella (Codling Moth). Nature of the experiment: Example B10: activity against Cydia pomonella, sprayed diet cubes. The note with it: 336 h. Here is the method:
Activity Against Cydia pomonella (Codling Moth)
Standard Cydia diet cubes (1.5 cm width) are pierced with a tooth-pick and are immersed in liquid paraffin (ca. 80° C.). After the paraffin coat has hardened, an aqueous emulsion containing 12.5 ppm of active ingredient is applied using a De Vilbis sprayer (25 ml, 1 bar). After the spray coating has dried, the cubes are put into plastic containers which are then populated with two freshly hatched Cydia pomonella (1st instar). The containers are then closed with a plastic cap. After 14 days incubation at 26° C. and 40-60% relative humidity, the survival rate of the caterpillars as well as their growth regulation is determined.

Experiment [5] relates to Thrips tabaci (Onion Thrips). The experiment in a line: Example B7: activity against Thrips tabaci, sunflower leaf discs. The note with it: foliar, 144 h. On the procedure: Activity Against Thrips tabaci (Onion Thrips)
Sunflower leaf discs are placed on agar in a 24-well microtiter plate and sprayed with test solutions. After drying, the leaf discs are infested with a thrips population of mixed ages. After an incubation period of 6 days, samples are checked for mortality and special effects (e.g. phytotoxicity).

The subject of experiment [6] is Spodoptera littoralis (Egyptian Cotton Leafworm). The experiment in a line: Example B1: activity against Spodoptera littoralis, sprayed cotton leaf discs, L1 larvae. The conditions noted are these: foliar, 72 h. The text has this: Activity Against Spodoptera littoralis (Egyptian Cotton Leafworm)
Cotton leaf discs are placed on agar in a 24-well microtiter plate and sprayed with test solutions. After drying, the leaf discs are infested with 5 L1 larvae. The samples are checked for mortality, repellent effect, feeding behaviour, and growth inhibition 3 days after treatment (DAT).

Experiment [7] has as its system Plutella xvlostella (Diamond Back Moth). The experiment in a line: Example B3: activity against Plutella xylostella, L2 larvae on artificial diet. The conditions noted are these: 120 h. On the procedure:
Activity Against Plutella xvlostella (Diamond Back Moth)
24-well microtiter plate (MTP) with artificial diet is sprayed with test solutions. After drying, the MTP's are infested with larvae (L2)(10-15 per well). After an incubation period of 5 days, samples are checked for larval mortality, antifeedant and growth inhibition.

In general, mortality refers to the percentage killed. A higher mortality goes with a strong lethal effect. Take `Cc1cc(I)cc(C(=O)NC(C)(C#N)C2CC2)c1NC(=O)c1cc(Cl)nn1-c1ncccc1Cl` (centres unmarked) [Compound T1.1.107]: the mortality at 200 ppm in experiment [1] (Tetranychus urticae, foliar, 192 h) was 80%; in experiment [3] it was greater than 80%; in experiment [5], greater than 80%; in experiment [6], greater than 80%; in experiment [7] it was greater than 80%. Further, in experiment [1] (in vivo), the activity in words result is given as “good activity”. In addition, the mortality at 12.5 ppm in experiment [2] and in experiment [4] was greater than 80% in each case.
